Measured values: patent US10856563B2, “N-acyl-amino acid derivatives for improvement of the flavor profile of edible compositions” (Givaudan S.A., priority 2012, dated 2020)

How the values were obtained:
[1] = Test on Tang (high intensity sweetener HIS masking), evaluation by expert tasters; details: versus base
Experimental: In an orange flavoured Tang powdered soft drink (market product) sweetened with sucrose plus high intensity sweetener (aspartame and acesulfame-K) and containing citric acid, C18:2-gaba and C18:2-pro were tested.
All samples were evaluated by expert tasters. Tasters were asked to describe the samples focusing on authentic taste, masking off notes of high intensity sweetener, mouthfeel & body, enhancement, richness, juiciness, long lastingness, salivation, sweetness
Base is Orange flavoured Tang
Base: sweet, orange, licorice, and lingering high intensity sweetener off-notes, bitter, thin

[2] = Test on liquid margarine (KCL masking), evaluation by expert tasters; details: 2 ppm in Blueband liquid margarine, 0.8% KCL, proprietary masking flavour 0.01%
Experimental: In Blueband liquid margarine (market product) with added KCL 0.8% and a proprietary masking flavour @ 0.01% 18:2 gaba was added at 2 ppm.
Samples were evaluated by expert tasters. Tasters were asked to describe the samples focusing on authentic taste, masking of KCL off notes, mouthfeel, saltiness, fullness, salivation, long lastingness and fattiness.
Base is Blueband, 0.8% KCL, proprietary masking @ 0.01%
Base: metallic, buttery, bitter and soapy

[3] = Test on soy milk (soy protein masking), evaluation by expert tasters; details: 2 ppm in soy milk (1.8% fat), 5% sucrose, milk flavour 0.1%
Experimental: In a soy milk (1.8% fat) sweetened with 5% sucrose by weight, flavoured with a proprietary milk flavour at a dosage of 0.1%, C18:2-gaba was added at 2 ppm
Samples were evaluated by expert tasters. Tasters were asked to describe the samples focusing on authentic taste, masking of soy protein off notes, mouthfeel, fullness, salivation, sweetness, richness, long lastingness and fattiness.
Soy milk, 5% sucrose, milk flavor @ 0.1%: sweet, dry, green, soy bean taste

Compound | masking off notes of high intensity sweetener ([1]; 1 ppm in orange flavoured Tang (sucrose, aspartame, acesulfame-K, citric acid)) | taste description (enhancement, juiciness, authentic taste) ([1]; 1 ppm in orange flavoured Tang) | authentic taste [2] | masking of KCL off notes [2] | saltiness and mouthfeel [2] | masking of soy protein off notes [3] | taste description (richness, mouthfeel, fattiness) [3] | masking off notes of high intensity sweetener ([1]; 0.5 ppm in orange flavoured Tang (sucrose, aspartame, acesulfame-K, citric acid)) | taste description (enhancement, juiciness, mouthfeel) ([1]; 0.5 ppm in orange flavoured Tang)
CCCCC/C=C\C/C=C\CCCCCCCC(=O)N1CCC[C@H]1C(=O)O [C18:2-Pro, N-linoleoyl-Pro] | the off-notes of the high intensity sweetener were suppressed | the fresh, sweet juicy orange notes are enhanced, characteristic of authentic fresh orange fruit | – | – | – | – | – | – | –
CCCCC/C=C\C/C=C\CCCCCCCC(=O)NCCCC(=O)O [C18:2-gaba] | – | – | more authentic butter | less metallic and bitter notes | more saltiness, more mouthfeel | good reduction of the undesirable soy bean off-taste | clean, rich, creamy and milky | the off-notes of the high intensity sweetener were suppressed | the sweet juicy orange notes and mouthfeel are enhanced
